Experimental data reported in patent US20250320213A1, “Nitrogen-Containing Heterocyclic Compounds” (Pfizer Inc., priority 2024, published 2025).
Like-named read-outs stand apart in the source and are kept apart here.

Experiments:
STAT6 = target: T1, STAT6 (Homo sapiens, UniProt P42226); assay: STAT6 Reporter Luciferase Assay (IL-13 stimulated HaCaT keratinocyte NanoLuc reporter cells); assay type: cell-based; details: read-out: Reporter EC50
T1 construct: stably transfected HaCaT keratinocyte cell line, which expresses NanoLuc luciferase reporter gene under the transcriptional control of the STAT6 responsive promoter; endogenous in cells; host or cells: HaCaT keratinocyte reporter cell line (stably transfected with a NanoLuc reporter)
T1 sequence (P42226 1-847): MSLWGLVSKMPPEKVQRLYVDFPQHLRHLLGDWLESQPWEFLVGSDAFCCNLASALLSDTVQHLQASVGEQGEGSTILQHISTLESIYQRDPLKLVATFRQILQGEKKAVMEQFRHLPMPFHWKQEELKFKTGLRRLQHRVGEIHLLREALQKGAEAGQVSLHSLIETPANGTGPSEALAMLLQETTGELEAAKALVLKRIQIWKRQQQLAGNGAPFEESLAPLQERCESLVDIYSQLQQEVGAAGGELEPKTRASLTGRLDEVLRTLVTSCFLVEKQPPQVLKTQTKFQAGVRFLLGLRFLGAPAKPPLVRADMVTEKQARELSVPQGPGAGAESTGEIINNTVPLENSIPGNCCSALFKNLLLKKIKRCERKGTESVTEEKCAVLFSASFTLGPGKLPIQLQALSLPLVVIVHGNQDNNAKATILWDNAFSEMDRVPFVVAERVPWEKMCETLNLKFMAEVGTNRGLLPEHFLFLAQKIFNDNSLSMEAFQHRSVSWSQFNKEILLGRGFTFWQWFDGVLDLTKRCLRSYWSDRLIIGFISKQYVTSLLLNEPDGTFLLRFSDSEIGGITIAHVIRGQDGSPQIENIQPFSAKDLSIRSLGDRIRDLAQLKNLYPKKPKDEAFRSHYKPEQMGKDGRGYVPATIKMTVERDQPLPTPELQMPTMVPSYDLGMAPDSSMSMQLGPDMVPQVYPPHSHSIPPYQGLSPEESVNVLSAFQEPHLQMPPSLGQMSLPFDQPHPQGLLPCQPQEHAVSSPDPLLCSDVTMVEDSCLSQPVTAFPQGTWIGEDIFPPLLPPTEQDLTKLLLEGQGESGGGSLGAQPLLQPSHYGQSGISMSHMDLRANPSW
In short: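 IL-13 (0.12 nM, 4 h) stimulated STAT6 reporter activity in HaCaT cells after a 2 h compound pre-incubation; NanoLuc signal was measured.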

[1] = tested on: CCL17 secretion in peripheral human whole blood; assay: Human Whole Blood (HWB) CCL17 TR-FRET Assay (IL-13 stimulated CCL17 secretion); assay type: cell-based
In short: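 IC50 values reflect inhibition of IL-13-driven CCL17 release in human whole blood. Blood was preincubated with compound 2 h, stimulated 48 h at 37 °C with IL-13 (10 ng/mL final), and serum CCL17 was measured by TR-FRET.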

[2] = IL-13 stimulated HaCaT STAT6 NanoLuc reporter cells
[3] = Homo sapiens, 48 h, human whole blood, IL-13 stimulated
[4] = STAT6 NanoLuc luciferase reporter, IL-13 stimulated HaCaT keratinocyte cells
[5] = Homo sapiens, 48 h, inhibition of CCL17 secretion in human whole blood, 10 ng/mL IL13, 48 hours
[6] = Homo sapiens, 48 h, human whole blood, 10 ng/mL IL13, 48 hours
[7] = human whole blood, IL-13 stimulated, 48 hours

CC(C)n1nc(C(=O)NCc2ccc(C(N)=O)cc2)c2c1[C@@H](C)CN(c1ccc(C(=O)N3Cc4cccnc4C3)cn1)C2 [Example 395, (S)—N-(4-Carbamoylbenzyl)-5-(5-(6,7-dihydro-5H-pyrrolo[3,4-b]pyridine-6-carbonyl)pyridin-2-yl)-1-isopropyl-7-methyl-4,5,6,7-tetrahydro-1H-pyrazolo[4,3-c]pyridine-3-carboxamide]
EC50 (STAT6; [2]): 1 nM
IC50 [1, 3]: 6 nM

CN(C)C(=O)Nc1ccc(CNC(=O)c2nc(C3CC3)n3c2CN(c2ccc(C(=O)N(C)C)cn2)CC3)cc1 [Example 13, 3-cyclopropyl-7-(5-(dimethylcarbamoyl)pyridin-2-yl)-N-(4-(3,3-dimethylureido)benzyl)-5,6,7,8-tetrahydroimidazo[1,5-a]pyrazine-1-carboxamide]
EC50 (STAT6; [4]): 17 nM
IC50 [1, 5]: 83 nM

COCC1(N)CCN(C(=O)Nc2ccc(CNC(=O)c3nn(C(C)C)c4c3CN(c3ccc(C(=O)N(C)C)cc3)C[C@@H]4C)cc2)CC1 [Example 638, (S)-N-(4-(4-amino-4-(methoxymethyl)piperidine-1-carboxamido)benzyl)-5-(4-(dimethylcarbamoyl)phenyl)-1-isopropyl-7-methyl-4,5,6,7-tetrahydro-1H-pyrazolo[4,3-c]pyridine-3-carboxamide]
EC50 (STAT6; [2]): 1 nM
IC50 [1, 6]: 4 nM

Cc1nc(C(=O)NCc2ccc(NC(=O)N(C)C)cc2)c2n1C(C)CN(c1ccc(C(=O)N(C)C)cn1)C2 (single isomer, unassigned) [Example 54, rel-(R or S)-7-(5-(dimethylcarbamoyl)pyridin-2-yl)-N-(4-(3,3-dimethylureido)benzyl)-3,5-dimethyl-5,6,7,8-tetrahydroimidazo[1,5-a]pyrazine-1-carboxamide]
EC50 (STAT6; [4]): 120 nM
IC50 ([1]; inhibition of CCL17 secretion in human whole blood, 10 ng/mL IL13, 48 hours): 332 nM

CC(C)n1nc(C(=O)NCc2ccc(NC(=O)N3CCN(C)CC3)c(F)c2)c2c1[C@@H](C)CN(c1ccc(C(=O)N3Cc4cccnc4C3)cc1)C2 [Example 711, (S)-5-(4-(6,7-dihydro-5H-pyrrolo[3,4-b]pyridine-6-carbonyl)phenyl)-N-(3-fluoro-4-(4-methylpiperazine-1-carboxamido)benzyl)-1-isopropyl-7-methyl-4,5,6,7-tetrahydro-1H-pyrazolo[4,3-c]pyridine-3-carboxamide]
EC50 (STAT6; [2]): 0.5 nM
IC50 ([1]; Homo sapiens, 48 h, human whole blood, IL-13 10 ng/mL): 18 nM

CNC(=O)c1ccc(CNC(=O)c2nn(C)c3c2CN(c2ccc(C(=O)N(C)C)cc2)CC3)cc1 [Example 4, 5-(4-(Dimethylcarbamoyl)phenyl)-1-methyl-N-(4-(methylcarbamoyl)benzyl)-4,5,6,7-tetrahydro-1H-pyrazolo[4,3-c]pyridine-3-carboxamide]
EC50 (STAT6; [4]): 178 nM
IC50 [1, 5]: 1110 nM

CC(C)n1nc(C(=O)NCc2ccc(NC(=O)N(C)C)cc2)c2c1C[C@H](C)N(c1ccc(C(=O)N(C)C)cn1)C2 [Example 139, (S)-5-(5-(dimethylcarbamoyl)pyridin-2-yl)-N-(4-(3,3-dimethylureido)benzyl)-1-isopropyl-6-methyl-4,5,6,7-tetrahydro-1H-pyrazolo[4,3-c]pyridine-3-carboxamide]
EC50 (STAT6; [4]): 2 nM
IC50 [1, 5]: 7 nM

COc1nccc2c1CN(C(=O)c1ccc(N3CCc4c(c(C(=O)NCc5ccc(NC(=O)N(C)C)cc5)nn4C(C)C)C3)nc1)CC2 [Example 375, N-(4-(3,3-dimethylureido)benzyl)-1-isopropyl-5-(5-(8-methoxy-1,2,3,4-tetrahydro-2,7-naphthyridine-2-carbonyl)pyridin-2-yl)-4,5,6,7-tetrahydro-1H-pyrazolo[4,3-c]pyridine-3-carboxamide]
EC50 (STAT6; [2]): 15 nM
IC50 [1, 3]: 1960 nM

CC(C)C1CN(c2ccc(C(=O)N(C)C)cn2)Cc2c(C(=O)NCc3ccc(NC(=O)N(C)C)cc3)nn(C)c21 (single isomer, unassigned) [Example 271, rel-(R or S)-5-(5-(dimethylcarbamoyl)pyridin-2-yl)-N-(4-(3,3-dimethylureido)benzyl)-7-isopropyl-1-methyl-4,5,6,7-tetrahydro-1H-pyrazolo[4,3-c]pyridine-3-carboxamide]
EC50 (STAT6; [2]): 11 nM
IC50 [1, 7]: 180 nM

CC(C)n1nc(C(=O)NCc2ccc(NC(=O)N3CCC4(COC4)C3)cc2)c2c1CCN(c1ccc(C(=O)N(C)C)cn1)C2 [Example 152, N-(4-((5-(5-(dimethylcarbamoyl)pyridin-2-yl)-1-isopropyl-4,5,6,7-tetrahydro-1H-pyrazolo[4,3-c]pyridine-3-carboxamido)methyl)phenyl)-2-oxa-6-azaspiro[3.4]octane-6-carboxamide]
EC50 (STAT6; [4]): 31 nM
IC50 [1, 5]: 155 nM

CN[C@H]1CCCN(C(=O)Nc2ccc(CNC(=O)c3nn(C(C)C)c4c3CN(c3ccc(C(=O)N(C)C)cc3)C[C@@H]4C)cc2F)C1 [Example 569, (S)-5-(4-(dimethylcarbamoyl)phenyl)-N-(3-fluoro-4-((S)-3-(methylamino)piperidine-1-carboxamido)benzyl)-1-isopropyl-7-methyl-4,5,6,7-tetrahydro-1H-pyrazolo[4,3-c]pyridine-3-carboxamide]
EC50 (STAT6; [2]): 4 nM
IC50 [1, 6]: 20 nM

CCn1nc(C(=O)NCc2ccc(NC(=O)N(C)C)cc2)c2c1CC(C(F)(F)F)N(c1ccc(C(=O)N(C)C)cn1)C2 (single isomer, unassigned) [Example 250, rel-(R or S)-5-(5-(dimethylcarbamoyl)pyridin-2-yl)-N-(4-(3,3-dimethylureido)benzyl)-1-ethyl-6-(trifluoromethyl)-4,5,6,7-tetrahydro-1H-pyrazolo[4,3-c]pyridine-3-carboxamide]
EC50 (STAT6; [2]): 2 nM
IC50 [1, 7]: 28 nM

CC(C)n1nc(C(=O)NCc2ccc(NC(=O)N(C)C)cc2)c2c1CCN(c1ccc(N3CCCC3=O)cn1)C2 [Example 1, N-(4-(3,3-dimethylureido)benzyl)-1-isopropyl-5-(5-(2-oxopyrrolidin-1-yl)pyridin-2-yl)-4,5,6,7-tetrahydro-1H-pyrazolo[4,3-c]pyridine-3-carboxamide]
EC50 (STAT6; [4]): 11 nM
IC50 [1, 5]: 318 nM

CN[C@@H]1CCCN(C(=O)Nc2ccc(CNC(=O)c3nn(C(C)C)c4c3CN(c3ccc(C(=O)N(C)C)cc3)C[C@@H]4C)cc2F)C1 [Example 568, (S)-5-(4-(dimethylcarbamoyl)phenyl)-N-(3-fluoro-4-((R)-3-(methylamino)piperidine-1-carboxamido)benzyl)-1-isopropyl-7-methyl-4,5,6,7-tetrahydro-1H-pyrazolo[4,3-c]pyridine-3-carboxamide]
EC50 (STAT6; [2]): 2 nM
IC50 [1, 6]: 13 nM

COCC(C)n1nc(C(=O)NCc2ccc(NC(=O)N(C)C)cc2)c2c1[C@@H](C)CN(c1ccc(C(=O)N(C)C)cn1)C2 (mixture of isomers) [Example 344, (S)-5-(5-(dimethylcarbamoyl)pyridin-2-yl)-N-(4-(3,3-dimethylureido)benzyl)-1-((RS)-1-methoxypropan-2-yl)-7-methyl-4,5,6,7-tetrahydro-1H-pyrazolo[4,3-c]pyridine-3-carboxamide]
EC50 (STAT6; [2]): 1 nM
IC50 [1, 3]: 8 nM

CCn1nc(C(=O)NCc2ccc(NC(=O)N(C)C)cc2)c2c1C[C@H](C)N(c1ccc(C(=O)N(C)C)cn1)C2 (single isomer, unassigned) [Example 111]
EC50 (STAT6; [4]): 3 nM
IC50 [1, 5]: 13 nM

CC(C)n1nc(C(=O)NCc2ccc(NC(=O)N(C)C)cc2)c2c1CCN(c1ccc(N3C(=O)C4CCC3C4)cn1)C2 (stereo not shown) [Example 109, N-(4-(3,3-dimethylureido)benzyl)-1-isopropyl-5-(5-(3-oxo-2-azabicyclo[2.2.1]heptan-2-yl)pyridin-2-yl)-4,5,6,7-tetrahydro-1H-pyrazolo[4,3-c]pyridine-3-carboxamide]
EC50 (STAT6; [4]): 117 nM
IC50 [1, 5]: > 30000 nM
